Experimental data reported in patent US20260216134A1, “CHARGED PI-CONJUGATED MOLECULES FOR THE TREATMENT OF MICROBIAL INFECTIONS” (priority 2023, published 2026).

Key:
[1] = system: S. aureus ATCC 25923; experiment: Mutation frequency (rifampin-resistant colonies) on repeated treatment; type: cell-based, Staphylococcus aureus; details: frequency of rifampin-resistant colonies
Procedure: In addition, the mutation frequency (assessed as the frequency of rifampin-resistant colonies) of S. aureus ATCC 25923 subjected to repeated treatment with charged pi-conjugated compound or the conventional antibiotic ciprofloxacin was determined.
Mutation frequency was determined using rifampin resistance as a marker. The stored cells were revived overnight in LB broth and then plated on LB agar with and without rifampin (100 mg mL^−1) (Schaaff et al., 2002). The mutation frequency was calculated as the ratio of rifampin-resistant colonies to the total number of colonies.

[2] = system: MRSA USA300; experiment: In vivo anti-infective activity in G. mellonella infected with MRSA; parameters: species or system Galleria mellonella; details: 10-80 μM; vehicle-treated infected worms one day
Procedure: The in vivo anti-infective capacity of charged pi-conjugated compounds was evaluated in the invertebrate model G. mellonella infected with MRSA USA300. The survival curves shown in FIG. 21 illustrate the efficacy of two charged pi-conjugated compounds, BL 248 and BL 273, against MRSA USA300 infection in G. mellonella. With increasing concentrations of both molecules, there was a discernible improvement in survival compared with the vehicle-treated control group.
To evaluate the in vivo anti-infective activity of charged pi-conjugated compounds, MRSA USA300 was cultured overnight in tryptic soy broth and diluted to ~2×10^7 CFU mL^−1 in sterile phosphate-buffered saline based on OD600. Cohorts of five G. mellonella larvae (~300 mg each) were injected with 10 μL of the diluted bacterial suspension (2×10^5 […]) via the last left proleg, following larvae sterilization with 70% ethanol. One hour post-infection, the larvae were injected with increasing concentrations of charged pi-conjugated compounds or 1% DMSO (in PBS) as a negative control. Uninfected larvae were also used as controls. Larvae were incubated at 37° C., and survival was monitored afterward. Death was defined by complete melanization of the larval body and lack of movement in response to touch.

[3] = system: Gram-positive strains; experiment: MIC / MIC50 by broth microdilution in panel of Gram-positive strains; type: cell-based; details: MIC50 over all Gram-positive strains tested (Table 2)
Procedure: Antibacterial activity was assessed by determining the minimal inhibitory concentration (MIC) and the minimal bactericidal concentrations (MBC) and by monitoring time-dependent bacterial killing of exponentially growing cells. Bacterial cell suspensions (OD600≈0.02 in cation-adjusted Muller-Hinton Broth) were treated with increasing concentrations of the different molecules. The minimal inhibitory concentration (MIC) was defined as the minimal concentration of the molecule resulting in complete bacterial growth arrest. The minimal bactericidal concentration (MBC) was defined as the lowest concentration of the molecule that killed 99.9% of the inoculum. A molecule was determined to be bactericidal if the ratio of the MBC to the MIC was less than 4 to 6. […] In M. smegmatis, the antibacterial activity of charged pi-conjugated compounds was generally lower.
The MIC values for all Gram-positive strains tested (Table 2) were used to calculate the MIC50, i.e., the minimum inhibitory concentration needed to inhibit the growth of 50% of the tested isolates (FIG. 5A). […] When the average MIC50 values were evaluated, the most susceptible bacterial genera were Streptococcus sp., followed by Staphylococcus sp. In contrast, Propionibacterium sp. had the highest average MIC50 (FIG. 5B).
The broth microdilution method was used to determine the MIC of charged pi-conjugated compounds according to the CLSI guidelines. Charged pi-conjugated compound stock solutions (16 mM) were prepared in dimethyl sulfoxide (DMSO). Serial twofold dilutions of the charged pi-conjugated compounds were freshly prepared using the appropriate liquid media (Table 2), and 100 μL of each dilution was added to the appropriate wells of 96-well microtiter plates. The bacterial inoculum was further diluted in liquid media, and 100 μL was added to each well, resulting in a final cell density of ≈5×10^5 CFU mL^−1. […] A molecule was determined to be bactericidal if the ratio of the MBC to the MIC was less than 4 to 6. […]

[4] = system: HEK293 (epithelial-like kidney cells); experiment: Presto Blue viability assay, HEK293; type: cell-based, human; details: Homo sapiens, HEK293, 8 h, read-out: IC50 (concentration needed to inhibit cell viability by 50%)
Procedure: (§1) The biocompatibility of charged pi-conjugated compounds with mammalian cell lines was evaluated by studying the effects of different charged pi-conjugated compound concentrations on the viability of two mammalian cell lines: A549 (epithelial-like lung cells) and HEK293 (epithelial-like kidney cells). […] Dose-response curves were used to determine IC50 values, that is, the concentration of charged pi-conjugated compound needed to inhibit cell viability by 50%. […] The MIC of MRSA USA300 was used to calculate the therapeutic index. MRSA USA300 is a major contributor to community-associated MRSA infections, including skin and soft tissue infections, bacteraemia, endocarditis, bone and joint infections and nosocomial infections. […]
(§2) The biocompatibility of charged pi-conjugated compounds with mammalian cell lines was assessed by determining their impact on the mitochondrial activity of human alveolar basal epithelial adenocarcinoma cells (A549) and human embryonic kidney cells (HEK293T) cells, using the Presto Blue assay according to the manufacturer's protocol. […] After 8 h, Presto Blue cell viability reagent (Thermo Fisher Scientific, Waltham, MA, USA) was added to the cells, and after 2 h of incubation, fluorescence was measured using a microplate reader (BioTek Instruments Inc., Winooski, VT, USA). […] The therapeutic index was calculated from the ratio between IC50 and the MIC.

[5] = Crystal violet cytotoxicity test in A375 cells without light activation; type: cell-based, human; details: human
Procedure: The inhibitory concentration of charged pi-conjugated compounds needed to inhibit the cell growth by 50% (toxicity IC50).
Most of the charged pi-conjugated compounds are aminocyanines which are functionalized with alkyl amine group. The charged pi-conjugated compounds were added to cell cultures of A375 cancer cells (human melanoma) and their cytotoxicity was quantified by the crystal violet test and/or clonogenic assays for cell viability. […] The longer the exposure the most cytotoxic the charged pi-conjugated compounds are towards A375 cells. […] The same behavior is observed: the longer the exposure, the more cytotoxic. All molecules presented here are aminocyanines except GL-261-2 which is a carboxyl-cyanine. […] This was the first time a therapeutic window of concentration that can be tuned to selectively kill cancer and/or protect cells was suspected. In finding this therapeutic window concentration and time of exposure are important variables that should be fine tuned.
Based on the finding described above, a larger set of charged pi-conjugated compounds was evaluated for cytotoxicity against A375 cancer cells as shown in FIG. 25 and FIG. 26.
The IC50 is the concentration needed to inhibit the cell viability by 50%. These molecules in FIG. 25 and FIG. 26 were evaluated by crystal violet assay and using 2 days of exposure.

[6] = system: HEMa (normal melanocytes); experiment: Toxicity on A375 melanoma versus normal melanocytes (HEMa arm); type: cell-based; details: for safety for normal skin melanocyte cells (HEMa): 1 μM concentration
Procedure: (§3) FIG. 32 provides evidence of toxicity of charged pi-conjugated compounds on HEMa (normal melanocytes) versus on A375 melanoma using 1 day of incubation versus 2 days of incubation. BL-204, BL-141-2, BL-304 are aminocyanines. In contrast, TS-1-32 and GL-261-2 are two names for a carboxycyanine compound shown as GL-261-2 in FIG. 23.
This characterization is accurate for long exposures (~24 h) and in 200,000 cells/mL. The limits of toxic concentration (referenced herein as a therapeutic window) can vary with the exposure time and total cell number present in the test. For example, 1 μM concentration of charged pi-conjugated compounds are safe when used at 30 min exposure in the cell culture at 200,000 cells/mL. However, about higher than 2 μM cyanine becomes toxic (~8 μM) even at short exposure time (~30 min) for 200,000 cells/mL. In contrast, for a solid tumor this lethal concentration is expected to be higher since hundreds of millions of cells are contained in a small solid tumor. The dose may be calibrated and normalized by the total number of cells. The correct therapeutic window to kill cancer cells should be expressed in μg of charged pi-conjugated compound per 1 million of cells or ug of charged pi-conjugated compound per gram of cells. […] Therefore, the presently disclosed charged pi-conjugated compounds may be useful in a clinical application in patients where the charged pi-conjugated compounds could protect the normal tissue and selectively cause toxicity to cancer cells.

[7] = system: A375 melanoma; experiment: Toxicity on A375 melanoma versus normal melanocytes (A375 arm); type: cell-based, human; details: 1 μM concentration
Procedure: as §3
This characterization is accurate for long exposures (~24 h) and in 200,000 cells/mL. The limits of toxic concentration (referenced herein as a therapeutic window) can vary with the exposure time and total cell number present in the test. For example, 1 μM concentration of charged pi-conjugated compounds are safe when used at 30 min exposure in the cell culture at 200,000 cells/mL. However, about higher than 2 μM cyanine becomes toxic (~8 μM) even at short exposure time (~30 min) for 200,000 cells/mL. In contrast, for a solid tumor this lethal concentration is expected to be higher since hundreds of millions of cells are contained in a small solid tumor. The dose may be calibrated and normalized by the total number of cells. The correct therapeutic window to kill cancer cells should be expressed in μg of charged pi-conjugated compound per 1 million of cells or ug of charged pi-conjugated compound per gram of cells. […]

[8] = Clonogenic assay cytotoxicity in A375 cells without light; type: cell-based, human; details: human
Procedure: FIGS. 28A-28B provide a summary of the evidence of the cytotoxicity of charged pi-conjugated compounds without light. Toxicity was measured using clonogenic assay with 7 hours of incubation (contact time between molecules and A375 cells) and 7 days for colony formation. (FIG. 28A) The lethal concentration of the cyanine molecules to kill 50% of the A375 cells (Tox LC50) without light activation. (FIG. 28B) Chemical structure of exemplary charged pi-conjugated compounds. On average, 300 cells equal to 300 colonies were seeded and analyzed for each data point.
Both properties were measured using clonogenic assay with 7 hours of incubation (contact time between molecules and A375 cells) and 7 days for colony formation. 300 cells were seeded and analyzed for each data point.
More cytotoxicity tests were conducted in some additional molecules and using clonogenic assay for cell viability (FIG. 28). A375 cells were exposed to charged pi-conjugated compounds for 7 hours, in contrast to the previously presented assays which were conducted with crystal violet assay and 2 days of exposure. The data points showing the cytotoxicity quantification for each individual molecule are presented in FIG. 29, with resulting IC50 values summarized in Table 4.

[9] = system: MRSA USA300; experiment: Therapeutic index calculation (IC50 of mammalian cell lines / MIC); details: ratio of average IC50 for A549 and HEK293 to MIC in MRSA USA300
Procedure: as §1, §2

[10] = system: A549 (epithelial-like lung cells); experiment: Presto Blue viability assay, A549; type: cell-based; details: Homo sapiens, 8 h treatment, read-out: IC50 (concentration needed to inhibit cell viability by 50%)
Procedure: as §1, §2

## O=C(O)c1cn(C2CC2)c2cc(N3CCNCC3)c(F)cc2c1=O [ciprofloxacin]
[1]
  mutation rate across treatment cycles: marked increase across treatment cycles

## CN(C)C(=O)CN1/C(=C/C=C2C=C(/C=C/C3=[N+](CC(=O)N(C)C)c4ccc5ccccc5c4C3(C)C)CCC/2)C(C)(C)c2c1ccc1ccccc21.[Br-] [BL 273, 3-(2-(dimethylamino)-2-oxoethyl)-2-((E)-2-((E)-3-((E)-2-(3-(2-(dimethylamino)-2-oxoethyl)-1,1-dimethyl-1,3-dihydro-2H-benzo[e]indol-2-ylidene)ethylidene)cyclohex-1-en-1-yl)vinyl)-1,1-dimethyl-1H-benzo[e]indol-3-ium]
[2]
  survival of infected worms: three or more days
[3]
  antibacterial activity according to MIC50: strongest antibacterial activity
[4]
  IC50: 13700 nM

## CN(C)CCCCCC[N+]1=C(/C=C/C2=CC(=C/C=C3/N(C)c4ccc5ccccc5c4C3(C)C)/CCC2)C(C)(C)c2c1ccc1ccccc21.[I-] [BL-141-2, 3-(6-(dimethylamino)hexyl)-1,1-dimethyl-2-((E)-2-((E)-3-((E)-2-(1,1,3-trimethyl-1,3-dihydro-2H-benzo[e]indol-2-ylidene)ethylidene)cyclohex-1-en-1-yl)vinyl)-1H-benzo[e]indol-3-ium]
[5]
  IC50 at 2 days: 750 nM
[6]
  cell viability of normal skin melanocyte cells: increased the cell viability
  safety for normal skin melanocyte cells (HEMa): safe for normal skin melanocyte cells
[7]
  selectivity for killing cancer cells (A375): selective to specifically kill cancer cells
[8]
  IC50 at 7 h: 400 nM

## CN(C)C(=O)CN1c2ccc3ccccc3c2C(C)(C)C1/C=C/C1=CC(=C/C=C2/N(C)c3ccc4ccccc4c3C2(C)C)/CCC1.I (stereo not shown) [BL 248]
[9]
  therapeutic index: 9.3
[10]
  IC50: 14700 nM

## CN(C)CC[N+]1=C(/C=C/C2=CC(=C/C=C3/N(C)c4ccc5ccccc5c4C3(C)C)/CCC2)C(C)(C)c2c1ccc1ccccc21.[I-] [BL-204, 3-(2-(dimethylamino)ethyl)-1,1-dimethyl-2-((E)-2-((E)-3-((E)-2-(1,1,3-trimethyl-1,3-dihydro-2/I-benzo[e]indol-2-ylidene)ethylidene)cyclohex-1-en-1-yl)vinyl)-1H-benzo[e]indol-3-ium]
[5]
  IC50 at 2 days: 600 nM
[6]
  cell viability of normal skin melanocyte cells: increased the cell viability
  safety for normal skin melanocyte cells (HEMa): safe for normal skin melanocyte cells
[7]
  selectivity for killing cancer cells (A375): selective to specifically kill cancer cells
[8]
  IC50 at 7 h: 220 nM
